Where a name gives a salt, the structure may show the parent alone.
First: Brc1c(NC2=NCCN2)ccc2c1ncn2Cc1ccccc1 (as salt: fumarate) [Example 33, 1-Benzyl-4-bromo-5-(2-imidazolin-2-ylamino)Benzimidazole]
Second: Brc1c(NC2=NCCN2)ccc2ncn(Cc3ccccc3)c12 (as salt: fumarate) [Example 35, 3-Benzyl-4-bromo-5-(2-imidazolin-2-ylamino)Benzimidazole]
The melting point of the first is lower: 197 to 198 °C for the first, 203 to 205 °C for the second.

First: Cc1cc(NC2=NCCN2)cc2[nH]cnc12 (as salt: fumarate) [Example 52, 7-Methyl-5-(2-imidazolin-2-ylamino)Benzimidazole]
Second: Clc1cc(NC2=NCCN2)cc2[nH]cnc12 (as salt: fumarate) [Example 53, 7-Chloro-5-(2-imidazolin-2-ylamino)Benzimidazole]
The melting point of the first is higher: 229 to 231 °C for the first, 220 to 221 °C for the second.

Compared with OCCn1cnc2c(Br)c(NC3=NCCN3)ccc21 (as salt: fumarate) [Example 38, 1-(2-Hydroxyethyl)-4-bromo-5-(2-imidazolin-2-ylamino)Benzimidazole], CC(C)n1cnc2c(Br)c(NC3=NCCN3)ccc21 (as salt: fumarate) [Example 18, 1-Isopropyl-4-bromo-5-(2-imidazolin-2-ylamino)Benzimidazole] is higher in melting point: 141 to 143 °C for the first, 187 to 188 °C for the second.

First: Cn1cnc2cc(NC3=NCCN3)ccc21 (as salt: fumarate) [Example 9, 1-Methyl-5-(2-imidazolin-2-ylamino)Benzimidazole]
Second: CCCn1cnc2cc(NC3=NCCN3)ccc21 (as salt: fumarate) [Example 13, 1-Propyl-5-(2-imidazolin-2-ylamino)Benzimidazole]
The melting point of the first is higher: 210 to 211 °C for the first, 206 to 207 °C for the second.

First: Brc1c(NC2=NCCN2)ccc2nc[nH]c12 (as salt: fumarate) [Example 2, 4-Bromo-5-(2-imidazolin-2-ylamino)Benzimidazole]
Second: Ic1c(NC2=NCCN2)ccc2nc[nH]c12 (as salt: fumarate) [Example 5, 4-Iodo-5-(2-imidazolin-2-ylamino)Benzimidazole]
The melting point of the first is lower: 199 to 202 °C for the first, 256 °C for the second.

First: CCCCc1c(NC2=NCCN2)ccc2nc[nH]c12 (as salt: fumarate) [Example 8, 4-n-Butyl-5-(2-imidazolin-2-ylamino)Benzimidazole]
Second: CCc1c(NC2=NCCN2)ccc2nc[nH]c12 (as salt: fumarate) [Example 6, 4-Ethyl-5-(2-imidazolin-2-ylamino)Benzimidazole]
The melting point of the first is lower: 96 °C for the first, 238 to 239 °C for the second.

First: CCc1cc(NC2=NCCN2)cc2[nH]cnc12 (as salt: fumarate) [Example 55, 7-Ethyl-5-(2-imidazolin-2-ylamino)Benzimidazole]
Second: Brc1cc(NC2=NCCN2)cc2[nH]cnc12 (as salt: fumarate) [Example 51, 7-Bromo-5-(2-imidazolin-2-ylamino)Benzimidazole]
The melting point of the first is lower: 203 to 205 °C for the first, 217 to 218 °C for the second.

Compared with Brc1c(NC2=NCCN2)ccc2c1ncn2CC1CCCCC1 (as salt: fumarate) [Example 30, 1-Cyclohexylmethyl-4-bromo-5-(2-imidazolin-2-ylamino)Benzimidazole], c1cc2c(cc1NC1=NCCN1)ncn2CC1CCCCC1 (as salt: fumarate) [Example 29, 1-Cyclohexylmethyl-5-(2-imidazolin-2-ylamino)Benzimidazole] is higher in melting point: 193 to 195 °C for the first, 222 to 223 °C for the second.

Compared with Cc1cc2nc[nH]c2cc1NC1=NCCN1 (as salt: fumarate) [Example 49, 6-Methyl-5-(2-imidazolin-2-ylamino)Benzimidazole], CC(C)Cn1cnc2ccc(NC3=NCCN3)c(Br)c21 (as salt: fumarate) [Example 24, 3-Isobutyl-4-bromo-5-(2-imidazolin-2-ylamino)Benzimidazole] is lower in melting point: 219 to 221 °C for the first, 187 to 188 °C for the second.

With CC(C)c1nc2ccc(NC3=NCCN3)c(Br)c2[nH]1 (as salt: fumarate) [Example 44, 2-Isopropyl-4-bromo-5-(2-imidazolin-2-ylamino)Benzimidazole] the melting point was 176 to 178 °C.

Source: patent publication US6403626B1, “Benzimidazole derivatives” (Synaptic Pharmaceutical Corporation, priority 1994, dated 2002)
